Results on 29 compounds are retold here after patent publication EP4793271A1, “NEUROPROTECTIVE AGENT” (National Center of Neurology and Psychiatry, priority 2023, dated 2025).

Assay [1] deals with T1, nicotinamide phosphoribosyl transferase (NAMPT) (Homo sapiens, UniProt P43490).
T1 construct: purchased Medical & Biological Laboratories Co., Ltd. (MBL)
The assay is described as follows: NAMPT activity measurement (NMN fluorescence detection). It is filed as biochemical. The conditions noted are these: NAMPT recombinant protein, 10 µM Nam; for IC50: read-out: Evaluation on NAMPT inhibitory. An outline of the steps:
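Recombinant NAMPT reacted with 10 µM Nam, 0.5 µM PRPP, 2 µM ATP in Tris pH 7.4 buffer with MgCl2, DTT, BSA; product NMN quantified by fluorescence (ex 421/em 480 nm) after derivatization with 2-acetylbenzofuran. Compounds at 3 nM–10 µM; control-normalized signal used for IC50.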

In assay [2] the test system is primary cultured cells of mouse fetus-derived dorsal root ganglia (DRGs). The assay is described as follows: Suppression of axonal degeneration after axotomy in DRG explant culture. The assay is classed as cell-based. The conditions noted are these: minimum concentration at which axonal degeneration was suppressed (DI 0.3 or less), 24 hours after axotomy; for minimal effective concentration: Mus musculus, read-out: Evaluation on protection against degeneration. An outline of the steps:
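Embryonic ICR mouse DRG explants were cultured 7–8 days in nicotinamide-free neuronal medium with NGF, then axotomized by removing the cell bodies. Compound (100 pM–10 µM final, 0.1% DMSO) was added within 30 min, and neurites were imaged 24 h later. The result is the lowest concentration giving degeneration index ≤0.3.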

The next assay addresses T2, hSARM1 (Homo sapiens, UniProt Q6SZW1).
T2 sequence (Q6SZW1 28-724): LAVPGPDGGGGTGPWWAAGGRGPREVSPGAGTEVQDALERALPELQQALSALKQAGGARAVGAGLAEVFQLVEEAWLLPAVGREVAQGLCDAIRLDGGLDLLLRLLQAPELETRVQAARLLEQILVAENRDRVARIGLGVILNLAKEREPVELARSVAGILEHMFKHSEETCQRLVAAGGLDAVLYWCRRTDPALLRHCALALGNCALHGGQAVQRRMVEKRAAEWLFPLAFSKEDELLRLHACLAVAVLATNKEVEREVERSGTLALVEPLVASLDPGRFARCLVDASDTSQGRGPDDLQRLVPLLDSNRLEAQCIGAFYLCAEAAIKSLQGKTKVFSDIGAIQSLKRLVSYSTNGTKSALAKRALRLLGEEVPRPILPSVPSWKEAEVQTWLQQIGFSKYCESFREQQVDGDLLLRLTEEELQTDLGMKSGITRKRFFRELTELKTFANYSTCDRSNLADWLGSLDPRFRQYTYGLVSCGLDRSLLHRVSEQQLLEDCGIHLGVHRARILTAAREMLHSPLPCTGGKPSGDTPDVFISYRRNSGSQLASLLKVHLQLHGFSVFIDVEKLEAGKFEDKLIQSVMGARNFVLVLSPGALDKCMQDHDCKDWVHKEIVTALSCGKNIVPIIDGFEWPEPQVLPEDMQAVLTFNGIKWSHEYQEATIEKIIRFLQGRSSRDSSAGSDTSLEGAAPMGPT
The assay is described as follows: Human SARM1 activity measurement in HEK293 cells transiently transfected with ΔN-hSARM1 (PC6 fluorescent probe). The assay is classed as cell-based. The conditions noted are these: inhibition rate; compound 30 µM; PC6 50 µM; HEK293 cells expressing ΔN-hSARM1; approximately 48 hours from transfection; read-out: Evaluation on hSARM1 inhibitory. Set-up: expressed in transfected cells; host or cells: HEK293, pcDNA3 expression vector. In outline: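 HEK293 cells in nicotinamide-free DMEM with 5 μM nicotinamide, transiently transfected with mitochondrial-targeting-deleted ΔN-hSARM1; PC6 base-exchange fluorescent probe (50 μM) plus compound (30 μM) added ~8 h post-transfection. Fluorescence (ex 405/em 525 nm) read ~48 h from transfection; inhibition % versus transfected DMSO control, untransfected background subtracted.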

Molecules are shown by their SMILES.

T1 sequence (P43490 whole entry, species assumed): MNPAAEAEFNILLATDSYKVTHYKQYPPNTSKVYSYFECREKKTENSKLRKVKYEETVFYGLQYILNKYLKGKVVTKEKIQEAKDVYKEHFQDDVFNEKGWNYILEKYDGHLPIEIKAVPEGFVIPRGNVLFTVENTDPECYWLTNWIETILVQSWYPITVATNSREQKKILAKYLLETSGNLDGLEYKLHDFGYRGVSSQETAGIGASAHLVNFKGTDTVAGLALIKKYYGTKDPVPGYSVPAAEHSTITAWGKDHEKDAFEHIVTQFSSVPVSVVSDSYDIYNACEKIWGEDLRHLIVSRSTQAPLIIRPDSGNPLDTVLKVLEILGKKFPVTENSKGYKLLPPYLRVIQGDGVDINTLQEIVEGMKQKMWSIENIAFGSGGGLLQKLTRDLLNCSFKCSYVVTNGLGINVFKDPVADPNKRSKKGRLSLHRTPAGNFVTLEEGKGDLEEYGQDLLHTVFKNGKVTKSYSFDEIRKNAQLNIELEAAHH

Take `CC(C)C(=O)N(C(=O)C(C)C)c1ccc(CNC(=O)c2cccnc2)cn1` [Compound 172]: the “Evaluation on NAMPT inhibitory” value in assay [1] is listed as “○”. Also, the minimal effective concentration in assay [2] was at most 0.01 µM. For the same compound, the inhibition at 30 µM at hSARM1 is over 10%.

`O=C(NCc1ccc(NC(=O)C2CCOCC2)cc1)c1cccnc1` [compound 108]: in assay [1], the IC50 was at least 0.1 µM. In assay [2], the minimal effective concentration was at most 0.01 µM. Also, the inhibition at 30 µM on hSARM1 was over 75%.

On to `C#CCOCCOCCNC(=O)c1cccnc1` [compound 11], for which the “Evaluation on NAMPT inhibitory” value in assay [1] is on record as “○”. Further, the minimal effective concentration in assay [2] was in the range of 0.01 to 0.1 µM. Besides, the inhibition at 30 µM on hSARM1 is over 10%.

As to `O=C(NCc1ccc(NC(=O)c2cccc(F)c2)nc1)c1cccnc1` [Compound 116], the “Evaluation on NAMPT inhibitory” value in assay [1] was “○”. For the same compound, the minimal effective concentration in assay [2] was at most 0.01 µM. Also, the inhibition at 30 µM at hSARM1 is over 75%.

`O=C(NCCOCCOc1cccc(O)c1)c1cccnc1` [compound 27]: the IC50 in assay [1] was at least 0.1 µM. Also, the minimal effective concentration in assay [2] was 0.01 to 0.1 µM. The inhibition at 30 µM on hSARM1 is over 75%.

Regarding `CCC(C)CC(=O)Nc1ccc(CNC(=O)c2cccnc2)cn1` (stereo not drawn) [Compound 165], the “Evaluation on NAMPT inhibitory” value in assay [1] is recorded as “○”. Moreover, in assay [2], the minimal effective concentration is at most 0.01 µM. The inhibition at 30 µM on hSARM1 was over 75%.

In the case of `O=C(/C=C/c1cccnc1)NCCCOc1ccc(CNC(=O)c2ccccc2)cc1` [compound 16], the IC50 in assay [1] was at least 0.1 µM. Besides, in assay [2], the minimal effective concentration was at most 0.01 µM. Moreover, the inhibition at 30 µM on hSARM1 was over 75%.

`O=C(NCc1ccc(NC(=O)c2ccccc2C(F)(F)F)nc1)c1cccnc1` [compound 81]: in assay [1], the “Evaluation on NAMPT inhibitory” value is reported as “○”. The minimal effective concentration in assay [2] fell in the range of 0.01 to 0.1 µM. For the same compound, the inhibition at 30 µM at hSARM1 is over 50%.

On to `O=C(/C=C/c1cccnc1)Nc1ccc(CNC(=O)c2ccccc2)cc1` [compound 64], for which, in assay [1], the IC50 was at least 0.1 µM. In addition, the minimal effective concentration in assay [2] was at most 0.01 µM. For the same compound, the inhibition at 30 µM at hSARM1 is over 75%.

Take `COc1ccc(C(=O)Nc2ccc(CNC(=O)c3cccnc3)cn2)cc1` [Compound 129]: the “Evaluation on NAMPT inhibitory” value in assay [1] is given as “○”. For the same compound, the minimal effective concentration in assay [2] was at most 0.01 µM. In addition, the inhibition at 30 µM at hSARM1 was over 75%.

For `O=C(/C=C/c1cccnc1)NCCOCCOc1ccccc1` [compound 17], the IC50 in assay [1] was at least 0.1 µM. Moreover, the minimal effective concentration in assay [2] was at most 0.01 µM. The inhibition at 30 µM at hSARM1 was over 75%.

With `CCC(C)C(=O)Nc1ccc(CNC(=O)c2cccnc2)cn1` (stereo not drawn) [Compound 161], the “Evaluation on NAMPT inhibitory” value in assay [1] was “○”. Further, the minimal effective concentration in assay [2] was at most 0.01 µM. Moreover, the inhibition at 30 µM at hSARM1 is over 10%.

For `O=C(COc1cccc(C(F)(F)F)c1)Nc1ccc(CNC(=O)c2cccnc2)cn1` [Compound 175], the IC50 in assay [1] is at least 0.1 µM. In addition, the minimal effective concentration in assay [2] lay in the range of 0.01 to 0.1 µM. In addition, the inhibition at 30 µM at hSARM1 is over 75%.

With `O=C(NCc1ccc(NC(=O)c2ccc(F)cc2F)nc1)c1cccnc1` [Compound 139], the “Evaluation on NAMPT inhibitory” value in assay [1] is recorded as “○”. In addition, the minimal effective concentration in assay [2] was at most 0.01 µM. Further, on hSARM1, the inhibition at 30 µM was over 25%.

Turning to `COc1cccc(OCCOCCNC(=O)c2cccnc2)c1` [compound 99], the “Evaluation on NAMPT inhibitory” value in assay [1] was “○”. Besides, the minimal effective concentration in assay [2] was 0.01 to 0.1 µM. For the same compound, the inhibition at 30 µM at hSARM1 was over 50%.

Regarding `O=C(NCc1ccc(NC(=O)c2ccccc2)nc1)c1cnc2ccccc2c1` [Compound 140], the “Evaluation on NAMPT inhibitory” value in assay [1] is on record as “○”. Further, the minimal effective concentration in assay [2] was in the range of 0.1 to 1 µM. In addition, on hSARM1, the inhibition at 30 µM is over 10%.

As for `O=C(Cc1ccc2ccccc2c1)Nc1ccc(CNC(=O)c2cccnc2)cn1` [Compound 123], the IC50 in assay [1] is at least 0.1 µM. Further, the minimal effective concentration in assay [2] is at most 0.01 µM. Further, the inhibition at 30 µM at hSARM1 was over 75%.

`Cc1ccccc1C(=O)Nc1ccc(CNC(=O)c2cccnc2)cn1` [Compound 130]: in assay [1], the “Evaluation on NAMPT inhibitory” value is given as “○”. In assay [2], the minimal effective concentration is at most 0.01 µM. Moreover, the inhibition at 30 µM on hSARM1 was over 75%.

For the compound `O=C(NCCCOCCOCCCNC(=O)c1ccc2ccccc2c1)c1cccnc1` [Compound 187], in assay [1], the “Evaluation on NAMPT inhibitory” value is “○”. In addition, the “Evaluation on protection against degeneration” value in assay [2] is “C (0.1 µM < C ≤ 1 µM)”. Moreover, the inhibition at 30 µM on hSARM1 was over 25%.

On to `O=C(NCc1ccc(NC(=O)c2cnc3ccccc3c2)nc1)c1cccnc1` [Compound 126], for which the IC50 in assay [1] was at least 0.1 µM. Also, the minimal effective concentration in assay [2] is at most 0.01 µM. In addition, the inhibition at 30 µM at hSARM1 was over 75%.

Regarding `O=C(NCCCCC1NC(=O)C(CCCCNC(=O)c2cccnc2)NC1=O)c1cccnc1` (stereo not drawn) [compound 104], the “Evaluation on NAMPT inhibitory” value in assay [1] is “○”. Also, in assay [2], the minimal effective concentration lay in the range of 0.1 to 1 µM. Also, the inhibition at 30 µM on hSARM1 was over 10%.

Consider `COCOc1cccc(OCCOCCNC(=O)c2cccnc2)c1` [compound 30], for which, in assay [1], the “Evaluation on NAMPT inhibitory” value is on record as “○”. Also, the minimal effective concentration in assay [2] lay in the range of 0.01 to 0.1 µM. Further, the inhibition at 30 µM on hSARM1 was over 50%.

Turning to `O=C(COc1ccc(OCc2ccccc2)cc1)Nc1ccc(CNC(=O)c2cccnc2)cn1` [Compound 178], in assay [1], the IC50 is at least 0.1 µM. Also, in assay [2], the minimal effective concentration lay in the range of 0.01 to 0.1 µM. In addition, the inhibition at 30 µM at hSARM1 was over 75%.

As to `O=C(NCc1ccc(NC(=O)c2cccc(OC(F)(F)F)c2)nc1)c1cccnc1` [compound 86], the IC50 in assay [1] was at least 0.1 µM. Besides, the minimal effective concentration in assay [2] was in the range of 0.01 to 0.1 µM. Moreover, on hSARM1, the inhibition at 30 µM was over 75%.

For `C#CCOc1cncc(C(=O)Nc2ccc(CNC(=O)c3cccnc3)cc2)c1` [compound 67], the IC50 in assay [1] is at least 0.1 µM. Further, the minimal effective concentration in assay [2] is at most 0.01 µM. Also, the inhibition at 30 µM at hSARM1 is over 75%.

For `Cc1ccc(C(=O)Nc2ccc(CNC(=O)c3cccnc3)cn2)cc1` [Compound 119], in assay [1], the “Evaluation on NAMPT inhibitory” value is “○”. In addition, the minimal effective concentration in assay [2] was at most 0.01 µM. In addition, on hSARM1, the inhibition at 30 µM was over 75%.

For `N#Cc1ccc(OCC(=O)Nc2ccc(CNC(=O)c3cccnc3)cn2)cc1` [Compound 174], the IC50 in assay [1] is at least 0.1 µM. The minimal effective concentration in assay [2] lay in the range of 0.01 to 0.1 µM. In addition, the inhibition at 30 µM on hSARM1 was over 75%.

As to `N#Cc1ccc(/C=C/C(=O)Nc2ccc(CNC(=O)c3cccnc3)cn2)cc1` [Compound 166], the “Evaluation on NAMPT inhibitory” value in assay [1] is recorded as “○”. Also, in assay [2], the minimal effective concentration is at most 0.01 µM. Further, the inhibition at 30 µM on hSARM1 is over 75%.

For the compound `O=C(NCc1ccc(NC(=O)C2CCC2)cc1)c1cccnc1` [compound 109], the “Evaluation on NAMPT inhibitory” value in assay [1] was “○”. Besides, the minimal effective concentration in assay [2] is at most 0.01 µM. Besides, the inhibition at 30 µM at hSARM1 was over 75%.
